According to patent US6444850B1, “Fungicidial compounds having a fluorovinyloxphyenyl moiety and process for the preparation thereof” (priority 1997, dated 2002):

Key:
[1] = test system: Phytophthora infestans; format: in vivo; settings: 50 ppm; control value, tomato late blight
[2] = test system: Rhizoctonia solani AG-1; experiment: Fungicidal activity against rice sheath blight (RSB) disease; settings: 50 ppm, control value
[3] = test system: Erysiphae graminis; experiment: Fungicidal activity against barley powdery mildew (BPM) disease; format: in vivo; settings: for C. V. (%), Fungicidal activities against TLB at 10 ppm: Table 9 (Test Example 6); for C. V. (%) BPM: 50 ppm, control value, barley powdery mildew
Protocol: Erysiphae graminis was subcultured on a wheat plant in a laboratory. 15 g of barley seeds was sowed in a pot (diameter 6.5 cm) and cultured in a greenhouse for 7 days to obtain a barley plant having only a primary leaf. The barley plant was inoculated with spores by shaking thereover another plant infected by BPM. The inoculated barley plant was cultured in an incubator maintained at a temperature of 22 to 24° C. and a relative humidity of 50% for 7 days to induce BPM. L.A. on the leaf was measured to calculate an C.V.

[4] = test system: Botrytis cinerae; experiment: Fungicidal activity against cucumber gray mold rot (CGM) disease; format: in vivo; settings: 50 ppm, control value
Protocol: Botrytis cinerae, which was isolated from cucumber infected thereby, was inoculated on a PDA agar medium and cultured under a 12L/12D cycle at 25° C. for 15 days to form spore. The spores were scraped, filtered through a gauze and then suspended in potato dextrose liquid medium at a concentration of 1×10^6 spore/ml. The spore suspension was sprayed on a cucumber plant having one leaf. The cucumber plant was held in a humidified room at 20° C. for 3 days. L.A. on a leaf was measured to calculate an C.V.

[5] = test system: Puccinia recondita; experiment: Fungicidal activity against wheat leaf rust (WLR) disease; format: in vivo; settings: for C. V. (%), Fungicidal Activities against WLB at 10 ppm: Table 8 (Test Example 5); for C. V. (%) WLR: 50 ppm, control value, wheat leaf rust
[6] = test system: Pyricularia oryzae Carvara KA301; format: in vivo; settings: for C. V. (%) Fungicidal Activities against RCB at 10 ppm / C. V. (%) Fungicidal Activities against RCB at 10 ppm (TABLE 6): sprayed on Nakdong rice plant, control value from lesion area; for C. V. (%) RCB: 50 ppm, control value, rice blast

SMILES | C. V. (%) TLB [1] | C. V. (%) RSB [2] | C. V. (%), Fungicidal activities against TLB at 10 ppm [3] | C. V. (%) BPM [3] | C. V. (%) CGM [4] | C. V. (%), Fungicidal Activities against WLB at 10 ppm [5] | C. V. (%) WLR [5] | C. V. (%) Fungicidal Activities against RCB at 10 ppm [6] | C. V. (%) Fungicidal Activities against RCB at 10 ppm (TABLE 6) [6] | C. V. (%) RCB [6]
COC=C(C(=O)OC)c1ccccc1COc1cccc(OC(F)=Cc2ccc(C)c(C)c2)c1 [Compound 13] | 85% | 50% | 99% | 100% | 58% | 95% | 98% | 97% | 97% | 97%
CNC(=O)C(=COC)c1ccccc1COc1cccc(OC(F)=Cc2ccc(C)c(C)c2)c1 [Compound 14] | 20% | 5% | – | 25% | 63% | – | 16% | – | – | 16%
CON=C(C(=O)OC)c1ccccc1COc1cccc(OC(F)=Cc2ccc(C)c(C)c2)c1 [Compound 15] | 25% | 90% | – | 100% | 15% | – | 96% | – | – | 92%
COC(=O)C(=CSC)c1ccccc1COc1cccc(OC(F)=Cc2ccc(C)c(C)c2)c1 [Compound 16] | 33% | 60% | – | 97% | 0% | – | 83% | – | – | 53%
COC=C(C(=O)OC)c1ccccc1COc1cccc(OC(F)=Cc2cc(C)cc(C)c2)c1 [Compound 17] | 81% | 60% | – | 99% | 50% | 99% | 100% | 95% | 95% | 90%
CNC(=O)C(=COC)c1ccccc1COc1cccc(OC(F)=Cc2cc(C)cc(C)c2)c1 [Compound 18] | 6% | 5% | – | 0% | 21% | – | 0% | – | – | 26%
CON=C(C(=O)OC)c1ccccc1COc1cccc(OC(F)=Cc2cc(C)cc(C)c2)c1 [Compound 19] | 33% | 90% | – | 98% | 0% | – | 100% | – | – | 100%
COC(=O)C(=CSC)c1ccccc1COc1cccc(OC(F)=Cc2cc(C)cc(C)c2)c1 [Compound 20] | 46% | 35% | – | 93% | 0% | – | 83% | – | – | 73%
COC=C(C(=O)OC)c1ccccc1COc1cccc(OC(F)=Cc2cc(C)c(C)cc2C)c1 [Compound 21] | 44% | 90% | – | 98% | 33% | 90% | 96% | – | – | 93%
CNC(=O)C(=COC)c1ccccc1COc1cccc(OC(F)=Cc2cc(C)c(C)cc2C)c1 [Compound 22] | 25% | 26% | – | 0% | 0% | – | 0% | – | – | 0%
CON=C(C(=O)OC)c1ccccc1COc1cccc(OC(F)=Cc2cc(C)c(C)cc2C)c1 [Compound 23] | 10% | 90% | 91% | 100% | 20% | 91% | 93% | – | – | 88%
COC(=O)C(=CSC)c1ccccc1COc1cccc(OC(F)=Cc2cc(C)c(C)cc2C)c1 [Compound 24] | 18% | 46% | – | 96% | 27% | – | 98% | – | – | 62%
COC=C(C(=O)OC)c1ccccc1COc1cccc(OC(F)=Cc2cccc(OC)c2)c1 [Compound 25] | 43% | 92% | 91% | 98% | 0% | 99% | 100% | 95% | 95% | 95%
